Data taken from patent US20120040998A1, “2-ALKYL PIPERIDINE MGLUR5 RECEPTOR MODULATORS” (priority 2009, published 2012).
Like-named read-outs stand apart in the source and are kept apart here.

Molecular target: T1, human mGluR5A (Homo sapiens, UniProt P41594)
T1 construct: expressed in transfected cells
Assay: FLIPR Ca2+ mobilization assay, potentiation in the presence of 300 nM glutamate (EC20)
Assay type: cell-based
Description: The utility of the compounds in accordance with the present invention as positive allosteric modulators of metabotropic glutamate receptor activity, in particular mGluR5 activity, may be readily determined without undue experimentation by methodology well known in the art, including O'Brien et al., Molecular Pharmacology 2003, 64(3) 731-740. In particular, the compounds of the following examples had activity in reference assays by enhancing mGluR5 activity. […] Changes in intracellular Ca^2+ were measured with Fluo-4AM ester (Invitrogen/Molecular Probes), which was detected on a Fluorometric Imaging Plate Reader (FLIPR, Molecular Devices, Sunnyvale, Calif.). In a typical experiment the mGluR5 positive allosteric modulatory activity of the compounds of the present invention was determined in accordance with the following experimental method.
Cell Culture: Chinese Hamster Ovary (CHO) cells expressing human mGluR5A were maintained in growth medium containing DMEM, 10% dialyzed Fetal Bovine Serum, 50 units/mL Penicillin, 50 ug/mL Streptomycin, 2 mM L-glutamine, 1×MEM non-essential amino acids, 1 mM sodium pyruvate, 25 mM HEPES, 55 uM 2-mercaptoethanol, 5 ug/mL Puromycin, and 250 ug/mL Zeocin at 37° C. and 5% CO2. The day before the experiment, the cells were washed and seeded in “plating media” containing only DMEM, 10% dialyzed Fetal Bovine Serum, 50 units/mL Penicillin, and 50 ug/mL Streptomycin at a density of 50,000 cells/well (100 uL/well) in black 384-well clear-bottom PDL-coated plates. The cells were grown overnight at 37° C. and 6% CO2. This overnight glutamine/glutamate starvation allowed for consistent expression of the mGluR5A receptor, and the ability to add a known amount of agonist (glutamate in most cases) on the day of the experiment.
Fluorescent Ca^2+ mobilization (FLIPR) assay: The day of the experiment, the cells were washed with 37° C. Assay Buffer (Hanks Balanced Salt Solution with CaCl2 and MgCl2, 20 mM HEPES, 2.5 mM Probenecid, 0.1% BSA) with an automated plate washer (3×100 uL, aspiration 3 mm from bottom leaving ˜30 uL of buffer in each well). After washing, 30 uL of dye loading buffer (4 uM Fluo-4AM, 0.04% Pluronic acid, and 1% dialyzed FBS in assay buffer) were added to each well of the plates for 2 uM Fluo-4AM final concentration. The plates were incubated at 37° C. and 6% CO2 for 1 hour to allow for dye loading. After dye loading, the cells were washed again as above, and placed on the FLIPR. Assays were conducted with two possible scenarios: 1) To determine the potencies of the compounds, as either agonists of mGluR5 or potentiators of mGluR5 in the presence of a sub-threshold amount of glutamate, 10-point titrations of the compounds (1:3 dilution between each point, 30-0.0015 uM final concentrations) were added to the cells, followed by the addition of the EC20 of glutamate (300 nM) to the cells. 2) To determine the cooperativity of the compounds with the natural agonist (glutamate), single concentrations of the compounds were added to the cells, followed by the addition of a 10-point titration of glutamate (1:3 dilution between each point, 1000-0.05 uM final concentrations). […] For both scenarios above, operation of the FLIPR was the same. Baseline fluorescence was monitored for 10 seconds, followed by the addition of compounds diluted in Assay Buffer (1% DMSO concentration after this addition, 0.66% final DMSO concentration after agonist addition). After monitoring fluorescence for 5 minutes, during which time any intrinsic agonist activity of the compounds would have been detected, the agonist (glutamate) also diluted in assay buffer was then added to the cells. The response was then monitored for an additional 3 minutes. In scenario #1, the peak during the final 3 minutes was used for potentiator data, and the peak during the 5 minutes post compound addition was used for compound agonist data. […]

[1] = potentiation in presence of 300 nM glutamate, read-out: EC50 in potentiating/enhancing the mGluR5 receptor in the FLIPR assay
[2] = potentiation, CHO cells expressing human mGluR5A, in presence of 300 nM glutamate, inflection points, read-out: FLIPR EC50

T1 sequence (P41594 21-1180 isoform P41594-2 limits assumed): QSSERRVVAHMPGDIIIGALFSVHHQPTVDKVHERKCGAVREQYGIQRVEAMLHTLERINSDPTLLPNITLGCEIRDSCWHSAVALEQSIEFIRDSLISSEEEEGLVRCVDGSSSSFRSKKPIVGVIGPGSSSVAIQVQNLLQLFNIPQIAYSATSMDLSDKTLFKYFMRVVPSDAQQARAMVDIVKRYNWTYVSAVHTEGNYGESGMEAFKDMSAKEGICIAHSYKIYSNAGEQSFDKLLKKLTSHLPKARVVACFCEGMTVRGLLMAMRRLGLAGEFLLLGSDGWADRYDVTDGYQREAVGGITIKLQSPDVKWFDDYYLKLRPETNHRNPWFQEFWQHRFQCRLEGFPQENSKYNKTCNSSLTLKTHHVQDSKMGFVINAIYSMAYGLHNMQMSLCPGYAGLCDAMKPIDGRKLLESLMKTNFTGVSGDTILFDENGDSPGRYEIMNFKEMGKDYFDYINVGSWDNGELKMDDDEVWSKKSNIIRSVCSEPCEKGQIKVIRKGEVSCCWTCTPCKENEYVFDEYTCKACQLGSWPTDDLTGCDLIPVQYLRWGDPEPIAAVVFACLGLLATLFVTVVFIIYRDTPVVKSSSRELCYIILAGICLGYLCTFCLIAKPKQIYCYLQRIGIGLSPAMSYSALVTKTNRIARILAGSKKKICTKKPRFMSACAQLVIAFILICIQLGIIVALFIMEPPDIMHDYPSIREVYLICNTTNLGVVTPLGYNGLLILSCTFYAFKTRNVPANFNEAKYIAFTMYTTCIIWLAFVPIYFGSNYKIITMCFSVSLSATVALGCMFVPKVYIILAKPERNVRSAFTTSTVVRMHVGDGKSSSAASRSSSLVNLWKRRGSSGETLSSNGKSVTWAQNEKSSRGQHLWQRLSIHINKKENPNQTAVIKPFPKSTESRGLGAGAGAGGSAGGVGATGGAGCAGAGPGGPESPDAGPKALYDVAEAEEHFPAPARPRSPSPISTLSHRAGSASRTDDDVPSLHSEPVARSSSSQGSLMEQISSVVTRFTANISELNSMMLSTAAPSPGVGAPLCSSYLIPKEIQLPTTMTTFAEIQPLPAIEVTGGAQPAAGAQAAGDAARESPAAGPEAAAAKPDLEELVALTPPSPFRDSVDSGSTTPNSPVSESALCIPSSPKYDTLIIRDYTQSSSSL

With `C[C@@H]1CC[C@H](c2noc(-c3ccc(F)cn3)n2)CN1C(=O)c1ccc(F)cc1` [Example 4-4, 5-Fluoro-2-{3-[(3S,6R)-1-(4-fluorobenzoyl)-6-methylpiperidin-3-yl]-1,2,4-oxadiazol-5-yl}pyridine] the EC50 [1] was under 1000 nM and the EC50 [2] was 210 nM.

With `C[C@@H]1CC[C@H](c2noc(-c3cc(Cl)c[nH]3)n2)CN1C(=O)c1ccc(F)nc1` [Example 9-9, 5-({(2R,5S)-5-[5-(4-chloro-1H-pyrrol-2-yl)-1,2,4-oxadiazol-3-yl]-2-methylpiperidin-1-yl}carbonyl)-2-fluoropyridine] the EC50 [1] was under 1000 nM and the EC50 [2] was 146 nM.

`C[C@@H]1CC[C@H](c2noc(-c3cc(Cl)c[nH]3)n2)CN1C(=O)c1ccc(F)cc1` [Example 2-4, (2R,5S)-5-[5-(4-chloro-1H-pyrrol-2-yl)-1,2,4-oxadiazol-3-yl]-1-(4-fluorobenzoyl)-2-methylpiperidine] showed an EC50 [1] of under 1000 nM and an EC50 [2] of 25 nM.

Work on `COc1cc(C(=O)N2C[C@@H](c3nc(-c4cc(Cl)c[nH]4)no3)CC[C@H]2C)ccn1` [Example 9-22, 4-({(2R,5S)-5-[3-(4-chloro-1H-pyrrol-2-yl)-1,2,4-oxadiazol-5-yl]-2-methylpiperidin-1-yl}carbonyl)-2-methoxypyridine] yielded an EC50 [1] of under 1000 nM and an EC50 [2] of 55 nM.

Work on `C[C@@H]1CC[C@H](c2nc(-c3cc(Cl)c[nH]3)no2)CN1C(=O)c1ccc(F)cc1` [Example 5-5, (2R,5S)-5-[3-(4-Chloro-1H-pyrrol-2-yl)-1,2,4-oxadiazol-5-yl]-1-(4-fluorobenzoyl)-2-methylpiperidine] yielded an EC50 [1] of under 1000 nM and an EC50 [2] of 19 nM.

`C[C@@H]1CC[C@H](c2nc(-c3cc(Cl)c[nH]3)no2)CN1C(=O)c1ccc(F)nc1` [Example 9-18, 5-({(2R,5S)-5-[3-(4-chloro-1H-pyrrol-2-yl)-1,2,4-oxadiazol-5-yl]-2-methylpiperidin-1-yl}carbonyl)-2-fluoropyridine] was tested, and the EC50 [1] was under 1000 nM and the EC50 [2] was 91 nM.

`C[C@@H]1CC[C@H](c2noc(-c3ccc(F)cc3)n2)CN1C(=O)c1ccc(F)cc1` [Example 1-16, (2R,5S)-1-(4-fluorobenzoyl)-5-[5-(4-fluorophenyl)-1,2,4-oxadiazol-3-yl]-2-methylpiperidine] showed an EC50 [1] of under 1000 nM and an EC50 [2] of 124 nM.

With `C[C@H]1CC[C@@H](c2noc(-c3cc(Cl)c[nH]3)n2)CN1C(=O)c1ccc(F)cc1` [Example 2-3, (2S,5R)-5-[5-(4-chloro-1H-pyrrol-2-yl)-1,2,4-oxadiazol-3-yl]-1-(4-fluorobenzoyl)-2-methylpiperidine] the EC50 [1] was under 1000 nM and the EC50 [2] was 486 nM.
